Data reported in patent publication US20040002842A1, “Methods and systems for analyzing complex biological systems” (priority 2001, published 2004).
Entries after “also recorded” stand apart in the source; their conditions may differ.

Columns and labels:
[1] = system: Arabidopsis thaliana plants; assay: SOA1 phenotypic analysis of herbicide-treated plants (incl. MIC/Tmic); type: in vivo; conditions: for leafCurling, Dev. / leafTwisting, Dev. / leafWidth, Dev. / matureLeafAnthocyanins, Dev. / matureLeafChlorosis, Dev. / matureLeafNecrosis, Dev. / newLeafAnthocyanins, Dev. / newLeafChlorosis, Dev. / newLeafNecrosis, Dev. / pointedLeaves, Dev.: herbicide sprayed on 21-day plants, numeric value standardized to mock treated; for tMic, Dev.: score for time to full symptoms at minimum inhibitory concentration; for characteristic symptoms (morphological phenotype): herbicide-treated plants
Arabidopsis thaliana [2] = assay: MOA1 gene expression profiling (22,000 gene array); conditions: 1 hr; for Regulated Genes Following Herbicide Treatment: Down / Regulated Genes Following Herbicide Treatment: Up: p < 0.5; for No. of Lethal Genes Altered: regulated genes compared to list of essential (lethal) genes
Magnaporthe grisea = type: cell-based
Arabidopsis thaliana [3] = assay: MOA1 biochemical (metabolite) profiling by LC-MS and GC-MS; conditions: for stress related metabolites: within one hour after spraying
Arabidopsis plants = conditions: nitrate addition to N-starved plants; cited from earlier work

## O=C(O)COc1ccc(Cl)cc1Cl [2,4-D]
[1]
  leafCurling, Dev.: 1
  leafTwisting, Dev.: 2
  leafWidth, Dev.: −1
  matureLeafAnthocyanins, Dev.: 1
  matureLeafChlorosis, Dev.: 2
  matureLeafNecrosis, Dev.: 0
  newLeafAnthocyanins, Dev.: 0
  newLeafChlorosis, Dev.: 1
  newLeafNecrosis, Dev.: 0
  pointedLeaves, Dev.: 0
  tMic, Dev.: 2
[1]; phenotype class of three-week-old treated plants (FIG. 12)
  Symptom Class: 5

## O=C(O)c1cc(Oc2ccc(C(F)(F)F)cc2Cl)ccc1[N+](=O)[O-] [Acifluorfen]
[1]
  characteristic symptoms (morphological phenotype): Necrotic leaf flecks

## Nc1nc[nH]n1 [Amitrole]
[1]
  characteristic symptoms (morphological phenotype): leaf bleaching and leaf enlargement

## COC(=O)NS(=O)(=O)c1ccc(N)cc1 [Asulam]
Arabidopsis thaliana [2]
  Regulated Genes Following Herbicide Treatment: Down: 7
  Regulated Genes Following Herbicide Treatment: Up: 80
  No. of Lethal Genes Altered: 5

## CCNc1nc(Cl)nc(NC(C)C)n1 [Atrazine]
[1]
  characteristic symptoms (morphological phenotype): rapid and widespread leaf necrosis

## CC(C)N1C(=O)c2ccccc2NS1(=O)=O [Bentazon]
[1]
  characteristic symptoms (morphological phenotype): rapid and widespread leaf necrosis

## COc1nc(C)nc(NC(=O)NS(=O)(=O)c2ccccc2Cl)n1 [Chlorsulfuron]
[1]
  characteristic symptoms (morphological phenotype): anthocyanin accumulation in the older leaves accompanied by chlorosis of the newly emerging leaves
Arabidopsis thaliana [2]
  Regulated Genes Following Herbicide Treatment: Up: 97
  No. of Lethal Genes Altered: 8

## c1cc[n+]2c(c1)-c1cccc[n+]1CC2 [Diquat]
[1]
  leafCurling, Dev.: 2
  leafTwisting, Dev.: 0
  leafWidth, Dev.: −2
  matureLeafAnthocyanins, Dev.: 0
  matureLeafChlorosis, Dev.: 1
  matureLeafNecrosis, Dev.: 4
  newLeafAnthocyanins, Dev.: 0
  newLeafChlorosis, Dev.: 1
  newLeafNecrosis, Dev.: 4
  pointedLeaves, Dev.: 1
  characteristic symptoms (morphological phenotype): rapid and widespread leaf necrosis
  tMic, Dev.: 2

## CN(C)C(=O)Nc1ccc(Cl)c(Cl)c1 [Diuron]
[1]
  leafCurling, Dev.: 1
  leafTwisting, Dev.: 0
  leafWidth, Dev.: −2
  matureLeafAnthocyanins, Dev.: 0
  matureLeafChlorosis, Dev.: 2
  matureLeafNecrosis, Dev.: 4
  newLeafAnthocyanins, Dev.: 0
  newLeafChlorosis, Dev.: 2
  newLeafNecrosis, Dev.: 4
  pointedLeaves, Dev.: 1
  characteristic symptoms (morphological phenotype): rapid and widespread leaf necrosis
  tMic, Dev.: 1

## CP(=O)(O)CCC(N)C(=O)O (centres unmarked) [Glufosinate]
[1]
  leafCurling, Dev.: 2
  leafTwisting, Dev.: 1
  leafWidth, Dev.: −2
  matureLeafAnthocyanins, Dev.: 0
  matureLeafChlorosis, Dev.: 3
  matureLeafNecrosis, Dev.: 0
  newLeafAnthocyanins, Dev.: 0
  newLeafChlorosis, Dev.: 3
  newLeafNecrosis, Dev.: 0
  pointedLeaves, Dev.: 1
  characteristic symptoms (morphological phenotype): Chlorosis and leaf curling
  tMic, Dev.: 1
Magnaporthe grisea; in the presence of glufosinate
  Nitrogen source utilization by M. grisea: only able to utilize glutamine and glutamate as nitrogen sources
Arabidopsis thaliana [2]
  Regulated Genes Following Herbicide Treatment: Down: 54
  Regulated Genes Following Herbicide Treatment: Up: 296
  No. of Lethal Genes Altered: 10
Arabidopsis thaliana [3]
  stress related metabolites: Only a few, if any

## O=C(O)CNCP(=O)(O)O [Glyphosate]
[1]
  leafCurling, Dev.: 0
  leafTwisting, Dev.: 0
  leafWidth, Dev.: 0
  matureLeafAnthocyanins, Dev.: 3
  matureLeafChlorosis, Dev.: 1
  matureLeafNecrosis, Dev.: 3
  newLeafAnthocyanins, Dev.: 1
  newLeafChlorosis, Dev.: 2
  newLeafNecrosis, Dev.: 0
  pointedLeaves, Dev.: 1
  characteristic symptoms (morphological phenotype): anthocyanin accumulation in the older leaves accompanied by chlorosis of the newly emerging leaves
  tMic, Dev.: 2
Magnaporthe grisea
  Growth of M. grisea, Tiers 3 and 4 media: nearly identical as compared to Unknown 4; also recorded: inhibited growth of M. grisea when nitrate, nitrite, or glutamate was provided as the sole nitrogen source
Magnaporthe grisea; glyphosate at 1.0 mg/ml
  Growth inhibition of M. grisea: remediated by inclusion of aromatic amino acids to the media
Arabidopsis thaliana [3]; after one hour
  tyrosine level relative to the control: decreased

## CC(C)C1(C)N=C(c2ncccc2C(=O)O)NC1=O (centres unmarked) [Imazapyr]
[1]
  characteristic symptoms (morphological phenotype): anthocyanin accumulation in the older leaves accompanied by chlorosis of the newly emerging leaves
Arabidopsis thaliana [3]
  stress related metabolites: Only a few, if any

## CCc1cnc(C2=NC(C)(C(C)C)C(=O)N2)c(C(=O)O)c1 (centres unmarked) [Imazethapyr]
[1]
  characteristic symptoms (morphological phenotype): anthocyanin accumulation in the older leaves accompanied by chlorosis of the newly emerging leaves

## CS(=O)(=O)c1cc(C(F)(F)F)ccc1C(=O)c1cnoc1C1CC1 [Isoxaflutole]
Magnaporthe grisea; concentrations insufficient to inhibit growth
  Growth of M. grisea in minimal plus tyrosine and minimal media: inhibited in minimal plus tyrosine media, while growth in minimal media was unaffected
Arabidopsis thaliana [2]
  alterations in the expression of genes of the homogentisate biosynthetic pathway: not observed
  Regulated Genes Following Herbicide Treatment: Down: 370
  No. of Lethal Genes Altered: 15
Arabidopsis thaliana [3]; early time points
  Alpha-tocopherol level relative to the control: not significantly changed
Arabidopsis thaliana [3]; metabolite data, early time points (1 hr)
  tyrosine and phenylalanine level relative to the control: up-regulated; also recorded: began to accumulate relative to the control after one hour

## CSc1nnc(C(C)(C)C)c(=O)n1N [Metribuzin]
[1]
  characteristic symptoms (morphological phenotype): rapid and widespread leaf necrosis

## O=C(O)c1ccccc1C(=O)Nc1cccc2ccccc12 [Naptalam]
Arabidopsis thaliana [2]
  Regulated Genes Following Herbicide Treatment: Down: 47
  Regulated Genes Following Herbicide Treatment: Up: 50
  No. of Lethal Genes Altered: 3

## O=[N+]([O-])O [Nitrate, nitrate]
Arabidopsis plants
  Nitrate Regulation of Glutamate synthetase gene: ↑
  Nitrate Regulation of Glutamine synthetase (2) genes: ↑
  Nitrate Regulation of MADs Box (2) genes: ↓
  Nitrate Regulation of MYB transcription factor gene: ↑
  Nitrate Regulation of Malate Dehydrogenase gene: ↑
  Nitrate Regulation of Nitrate transporter gene: ↑
  Nitrate Regulation of Phosphate transporter gene: ↑
  Nitrate Regulation of Transaldolase gene: ↑
  Nitrate Regulation of Transketolase gene: ↑

## CNc1cnn(-c2cccc(C(F)(F)F)c2)c(=O)c1Cl [Norfluazon, Norflurazon]
Arabidopsis thaliana [3]
  stress related metabolites: Only a few, if any

## C[n+]1ccc(-c2cc[n+](C)cc2)cc1 [Paraquat]
[1]
  leafCurling, Dev.: 2
  leafTwisting, Dev.: 0
  leafWidth, Dev.: −1
  matureLeafAnthocyanins, Dev.: 0
  matureLeafChlorosis, Dev.: 1
  matureLeafNecrosis, Dev.: 4
  newLeafAnthocyanins, Dev.: 0
  newLeafChlorosis, Dev.: 1
  newLeafNecrosis, Dev.: 4
  pointedLeaves, Dev.: 1
  characteristic symptoms (morphological phenotype): rapid and widespread leaf necrosis
  tMic, Dev.: 2
